Test results from patent US6943192B2, “Treatment regimen for administration of phenylacetylglutamine, phenylacetylisoglutamine, and/or phenylacetate” (priority 1998, dated 2005).

Assays:
cancer = conditions: clinical trials; cited from earlier work
[1] = system: human breast cancer cell line MDA-MB-231; conditions: cited from earlier work
[2] = cited from earlier work
[3] = orally administered to rats; cited from earlier work
KIM-1 = conditions: cited from earlier work
[4] = peak plasma level after oral administration to rats; format: in vivo; conditions: orally administered to rats
Procedure: First, Burzynski et al. (Drugs Exptl. Clin. Res. 12 Suppl. 1, 11-16 (1986)) reported complete colony reduction of HBL-100 and Ki No. 1 tumor cell lines with 5.0 mg/mL of either phenylacetic acid or antineoplaston AS2-1. […] Under typical administration regimes of antineoplaston AS2-1, the peak plasma levels of phenylacetic acid are approximately […], roughly […] less than the cytostatic concentration observed in tissue culture experiments.

KYN-1 = conditions: cited from earlier work
[5] = cited from earlier work; remark: listed apart in the source
[6] = system: human colon adenocarcinoma; conditions: cited from earlier work
KMCH-1 = conditions: cited from earlier work
rat Nb2 lymphoma = conditions: cited from earlier work
S180 cells = conditions: mice implanted with S180 cells; cited from earlier work
neuroblastoma = conditions: cited from earlier work
Ki-1 = conditions: cited from earlier work
malignant melanoma = conditions: cited from earlier work
[7] = system: hormonally refractory prostate adenocarcinoma PC3; conditions: cited from earlier work
[8] = system: human promyelocytic leukemia HL-60; conditions: cited from earlier work
[9] = system: K562 erythroleukemia cells; conditions: cited from earlier work
medulloblastoma = conditions: cited from earlier work
[10] = system: breast carcinoma cell line HBL-100; conditions: cited from earlier work
astrocytoma = conditions: cited from earlier work
ovarian carcinoma = conditions: cited from earlier work
[11] = system: premalignant mesenchymal C3H 10T1/2 cells; conditions: cited from earlier work
murine fibrosarcoma V7T = conditions: cited from earlier work
[12] = system: chronic lymphocytic leukemia; conditions: cited from earlier work

Structure (SMILES): O=C1CCC(NC(=O)Cc2ccccc2)C(=O)N1 (centres unmarked) [3-phenylacetylamino-2,6-piperidinedione]
- efficacy in treating cancer (cancer): effective in treating cancer
- concentration at which cytostasis was observed ([1]; MDA-MB-231): 2.0 mg/mL
- effect on cultured MDA-MB-231 [1]: cytostatic effect
- clearance in vivo [2]: rapidly cleared in vivo
- peak plasma level [3]: approximately 0.2 mg/mL
- inhibition of the growth curve (KIM-1): Dose-dependent inhibition
- peak plasma level, fold less than the cytostatic concentration in tissue culture [4]: roughly 10 fold
- inhibition of the growth curve (KYN-1): Dose-dependent inhibition
- solubility in water [5]: poorly soluble in water
- inhibition of the growth curve [6]: Dose-dependent inhibition
- inhibition of the growth curve (KMCH-1): Dose-dependent inhibition
- inhibition of the growth curve (rat Nb2 lymphoma): Dose-dependent inhibition
- cAMP levels in the livers and tumors of treated mice relative to control mice (S180 cells): significantly elevated

Structure (SMILES): O=C(O)Cc1ccccc1 [phenylacetic acid]
- terminal differentiation or phenotypic reversion (neuroblastoma): promoted terminal differentiation or phenotypic reversion
- concentration giving complete colony reduction (Ki-1; Ki No. 1): 5.0 mg/mL
- growth inhibition (Ki-1; Ki-1): dose-dependent growth inhibition
- terminal differentiation or phenotypic reversion (malignant melanoma): promoted terminal differentiation or phenotypic reversion
- terminal differentiation or phenotypic reversion [7]: promoted terminal differentiation or phenotypic reversion
- terminal differentiation or phenotypic reversion [8]: promoted terminal differentiation or phenotypic reversion
- hemoglobin production [9]: enhanced hemoglobin production
- terminal differentiation or phenotypic reversion (medulloblastoma): promoted terminal differentiation or phenotypic reversion
- concentration giving complete colony reduction [10]: 5.0 mg/mL
- growth inhibition [10]: dose-dependent growth inhibition
- terminal differentiation or phenotypic reversion (astrocytoma): promoted terminal differentiation or phenotypic reversion
- terminal differentiation or phenotypic reversion (ovarian carcinoma): promoted terminal differentiation or phenotypic reversion
- adipocyte conversion [11]: caused adipocyte conversion
- tumor progression in premalignant cells ([11]; in distinction to 5-aza-2-deoxycitidine): did not cause tumor progression
- terminal differentiation or phenotypic reversion (murine fibrosarcoma V7T): promoted terminal differentiation or phenotypic reversion
- terminal differentiation or phenotypic reversion [12]: promoted terminal differentiation or phenotypic reversion
